Data as given in ChEMBL document CHEMBL1201862, “PubChem BioAssay data set” (2004).
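Following 48 hours of exposure in 96-well plates, responses at five concentrations were used to interpolate endpoints linearly. Abbreviation: GI50, concentration required for 50% inhibition of growth.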 Active and inactive are the calls of the source. Rule as the data show it: active = GI50 up to about 1.1 µM and inactive = higher.

What was measured:
Assay in all cases: NCI anticancer screen, dose series, 48 h
A498 = tested on: A498
ACHN = tested on: ACHN
BT-549 = tested on: BT-549
HCT-116 = tested on: HCT-116
HOP-62 = tested on: HOP-62
IGROV-1 = tested on: IGROV-1
MDA-MB-231 = tested on: MDA-MB-231
MDA-MB-435 = tested on: MDA-MB-435
NCI-H226 = tested on: NCI-H226
NCI-H23 = tested on: NCI-H23
NCI/ADR-RES = tested on: NCI/ADR-RES
RPMI-8226 = tested on: RPMI-8226
SF-295 = tested on: SF-295
SF-539 = tested on: SF-539
SK-MEL-5 = tested on: SK-MEL-5
SW-620 = tested on: SW-620
T47D = tested on: T47D
U-251 = tested on: U-251
UACC-257 = tested on: UACC-257
UO-31 = tested on: UO-31

Measured: GI50

CC(NC(=O)c1ccc(OP(=O)(OCc2ccc([N+](=O)[O-])o2)N(C)CCCCCl)cc1)c1ccc(OCC2CCCCC2)c(C(N)=O)c1 (centres undefined)
inactive: A498 12.9 µM | ACHN 3.93 µM | BT-549 2.36 µM | HCT-116 2.88 µM | HOP-62 7.05 µM | IGROV-1 2.75 µM | MDA-MB-231 2.58 µM | MDA-MB-435 2.38 µM | NCI-H226 3.98 µM | NCI-H23 5.19 µM | NCI/ADR-RES > 36.6 µM | SF-295 9.51 µM | SF-539 2.56 µM | SK-MEL-5 1.66 µM | SW-620 4.58 µM | T47D 2.06 µM | U-251 4.29 µM | UACC-257 3.87 µM | UO-31 1.83 µM
active: RPMI-8226 1.03 µM

c1ccc(CN2CCCN3CCN(CCCN(Cc4ccccc4)CC3)CC2)cc1
inactive: A498 58.5 µM | ACHN > 100 µM | BT-549 44.5 µM | HCT-116 35.2 µM | HOP-62 > 100 µM | IGROV-1 60 µM | MDA-MB-231 38.2 µM | MDA-MB-435 32.7 µM | NCI-H226 73.6 µM | NCI-H23 34.1 µM | NCI/ADR-RES > 100 µM | RPMI-8226 13 µM | SF-295 87.7 µM | SF-539 87.7 µM | SK-MEL-5 19.3 µM | SW-620 > 100 µM | T47D 35.7 µM | U-251 36.4 µM | UACC-257 22 µM | UO-31 > 100 µM

COC(CC1(CCNc2ccccc2)C(=O)N(COCC[Si](C)(C)C)c2ccccc21)OC (centres undefined)
inactive: A498 21.1 µM | ACHN 17.9 µM | BT-549 17.2 µM | HCT-116 13.9 µM | HOP-62 13.7 µM | IGROV-1 9.66 µM | MDA-MB-231 19.3 µM | MDA-MB-435 13.3 µM | NCI-H226 6 µM | NCI-H23 16.5 µM | NCI/ADR-RES 17.1 µM | RPMI-8226 7.23 µM | SF-295 16.6 µM | SK-MEL-5 4.97 µM | SW-620 18.9 µM | T47D 20.3 µM | U-251 18.2 µM | UACC-257 11.7 µM | UO-31 13.9 µM

O=C(O)CN1CCN2CCCCCCCCN(CC1)CCN(CC(=O)O)CC2
inactive: A498 > 100 µM | ACHN > 100 µM | BT-549 > 100 µM | HCT-116 > 100 µM | HOP-62 > 100 µM | IGROV-1 > 100 µM | MDA-MB-231 > 100 µM | MDA-MB-435 > 100 µM | NCI-H226 > 100 µM | NCI/ADR-RES > 100 µM | RPMI-8226 > 100 µM | SF-295 > 100 µM | SF-539 > 100 µM | SK-MEL-5 > 100 µM | SW-620 > 100 µM | T47D > 100 µM | U-251 > 100 µM | UACC-257 > 100 µM | UO-31 > 100 µM

O=C1CCC(C(=O)O)C2=C1CCCC2 (centres undefined)
inactive: A498 > 100 µM | ACHN > 100 µM | BT-549 > 100 µM | HCT-116 > 100 µM | HOP-62 > 16.4 µM | IGROV-1 > 100 µM | MDA-MB-231 > 100 µM | MDA-MB-435 > 100 µM | NCI-H226 > 14.4 µM | NCI-H23 > 15.5 µM | NCI/ADR-RES > 100 µM | RPMI-8226 > 100 µM | SF-295 > 36.1 µM | SK-MEL-5 > 56.1 µM | SW-620 > 100 µM | T47D > 100 µM | U-251 > 15.7 µM | UACC-257 > 100 µM

COC1(O)C(=O)c2ccccc2OC1(OC)c1ccccc1 (centres undefined)
inactive: A498 > 100 µM | ACHN > 100 µM | BT-549 > 100 µM | HCT-116 > 100 µM | HOP-62 > 100 µM | IGROV-1 > 100 µM | MDA-MB-231 > 100 µM | MDA-MB-435 > 100 µM | NCI-H226 > 100 µM | NCI-H23 > 100 µM | NCI/ADR-RES 77.8 µM | RPMI-8226 > 100 µM | SF-295 > 100 µM | SF-539 > 100 µM | SK-MEL-5 > 100 µM | SW-620 > 100 µM | T47D > 100 µM | U-251 > 100 µM | UACC-257 > 100 µM

Cc1ccc(-[n+]2cc([O-])on2)cc1
inactive: A498 65.8 µM | ACHN > 100 µM | BT-549 > 100 µM | HCT-116 > 100 µM | HOP-62 > 100 µM | IGROV-1 > 100 µM | MDA-MB-231 > 100 µM | MDA-MB-435 > 100 µM | NCI-H226 10.1 µM | NCI-H23 > 100 µM | NCI/ADR-RES > 100 µM | RPMI-8226 > 100 µM | SF-295 > 100 µM | SK-MEL-5 > 100 µM | SW-620 > 100 µM | T47D > 100 µM | U-251 > 100 µM | UACC-257 > 100 µM | UO-31 > 100 µM

O=C1Nc2ccccc2/C1=C1\C(=O)Nc2ccccc21 [ISOINDIGO]
inactive: A498 20.9 µM | ACHN 12.6 µM | BT-549 25.6 µM | HCT-116 17 µM | HOP-62 25 µM | IGROV-1 10.3 µM | MDA-MB-231 27.8 µM | MDA-MB-435 11.9 µM | NCI-H226 > 100 µM | NCI-H23 20.9 µM | NCI/ADR-RES 17.3 µM | RPMI-8226 17.3 µM | SF-295 60.3 µM | SK-MEL-5 59.7 µM | SW-620 4.57 µM | T47D 1.35 µM | U-251 11.4 µM | UACC-257 31.1 µM | UO-31 13.6 µM

O=c1cc(CSc2c(-c3ccccc3)c(=O)n(-c3ccccc3)c(=S)n2-c2ccccc2)[nH]c(=O)[nH]1
inactive: A498 > 100 µM | ACHN > 100 µM | BT-549 > 100 µM | HCT-116 > 100 µM | HOP-62 > 100 µM | IGROV-1 > 100 µM | MDA-MB-231 > 100 µM | MDA-MB-435 > 100 µM | NCI/ADR-RES > 100 µM | RPMI-8226 > 100 µM | SF-539 > 100 µM | SK-MEL-5 > 100 µM | SW-620 > 100 µM | T47D > 100 µM | U-251 > 100 µM | UACC-257 > 100 µM | UO-31 > 100 µM

CCC(O)c1ccc(/N=C/c2ccccc2O)cc1 (centres undefined)
inactive: A498 > 100 µM | ACHN > 100 µM | BT-549 > 100 µM | HCT-116 74.1 µM | HOP-62 > 100 µM | IGROV-1 > 100 µM | MDA-MB-231 > 100 µM | MDA-MB-435 > 100 µM | NCI-H226 > 100 µM | NCI-H23 > 100 µM | NCI/ADR-RES > 100 µM | RPMI-8226 > 100 µM | SF-295 > 100 µM | SF-539 > 100 µM | SK-MEL-5 > 100 µM | SW-620 > 100 µM | T47D 8.97 µM | U-251 > 100 µM | UO-31 > 100 µM

Cc1cc(C)n(CN(CCCCO)Cn2nc(C)cc2C)n1
inactive: A498 > 100 µM | ACHN 17.5 µM | BT-549 23 µM | HCT-116 20 µM | HOP-62 21.8 µM | IGROV-1 26.9 µM | MDA-MB-231 29.9 µM | MDA-MB-435 19.4 µM | NCI-H23 24.3 µM | NCI/ADR-RES 18.2 µM | RPMI-8226 3.21 µM | SF-295 > 100 µM | SF-539 18.6 µM | SK-MEL-5 34.1 µM | SW-620 21.7 µM | T47D 25.6 µM | U-251 22.4 µM | UACC-257 25.5 µM | UO-31 27.7 µM

O=C(NNC(=O)c1ccccc1O)c1cccs1
inactive: A498 > 100 µM | BT-549 > 100 µM | HCT-116 42.1 µM | HOP-62 42.6 µM | IGROV-1 30.7 µM | MDA-MB-231 78.2 µM | MDA-MB-435 > 100 µM | NCI-H226 5.79 µM | NCI/ADR-RES 27.8 µM | RPMI-8226 > 100 µM | SF-295 34.2 µM | SF-539 > 100 µM | SK-MEL-5 > 100 µM | SW-620 61.5 µM | T47D > 100 µM | U-251 > 100 µM | UACC-257 > 100 µM | UO-31 50.1 µM

N#CC12C(=O)N3C(=NC(c4ccccc4)NC3c3ccccc3)C1(C#N)C(c1ccccc1)NC1=C2CCCC1 (centres undefined)
inactive: A498 > 100 µM | ACHN > 100 µM | BT-549 > 100 µM | HCT-116 > 100 µM | HOP-62 > 100 µM | IGROV-1 > 100 µM | MDA-MB-231 > 100 µM | MDA-MB-435 > 100 µM | NCI-H226 > 100 µM | NCI-H23 > 100 µM | NCI/ADR-RES > 100 µM | RPMI-8226 > 100 µM | SF-295 > 100 µM | SK-MEL-5 > 100 µM | SW-620 > 100 µM | T47D > 100 µM | U-251 > 100 µM | UACC-257 > 100 µM | UO-31 > 100 µM

CCN1C(=O)C(=C/C=C/C=C2/N(C)c3ccccc3C2(C)C)C(=O)N(CC)C1=S
inactive: A498 > 100 µM | ACHN 53.6 µM | BT-549 13.6 µM | HCT-116 > 100 µM | HOP-62 32.5 µM | IGROV-1 > 100 µM | MDA-MB-231 > 100 µM | MDA-MB-435 > 100 µM | NCI-H226 > 100 µM | NCI-H23 > 100 µM | NCI/ADR-RES > 100 µM | RPMI-8226 > 100 µM | SF-295 61.5 µM | SF-539 78.3 µM | SK-MEL-5 > 10 µM | SW-620 > 100 µM | T47D 82.4 µM | UACC-257 56.1 µM | UO-31 > 100 µM
